Results reported in ChEMBL document CHEMBL5441142, “Probing the Merck KGaA Open Global health library for novel starting points for anti-schistosomal drug discovery” (2024).
Activity calls are given as the source filed them.

Tests used:
Schistosoma mansoni [1] = assay: In vitro activity screen on S. mansoni schistosomula at 10 uM. Compound-induced effects were assessed by quantifying larva motility and phenotype using Roboworm.; format: functional, organism-based; design: test concentration 10 uM, temperature 37 degree C, time incubation 72 h; conditions: Puerto Rican
Schistosoma mansoni [2] = assay: Ex vivo activity screen on S. mansoni adult worms at 20 uM. Parasite motility after compound treatment was assessed at 72 h using the WHO-TDR scoring metric.; format: functional, organism-based; design: test concentration 20 uM, temperature 37 degree C; conditions: Puerto Rican

| Compound | In vitro activity (Schistosoma mansoni [1]) | Ex-vivo screening (Schistosoma mansoni [2]) | EC50 (Schistosoma mansoni [1]) |
| --- | --- | --- | --- |
| COCCCOc1ccc(OC)c(-c2cn3cc(C(=O)NCCc4c(OC)cc(OC)cc4OC)ccc3n2)c1 | Active | inactive | – |
| COc1ccc(CNc2nc3c(ccc4[nH]c(=O)c(C#N)cc43)s2)cc1 | – | Active | 4.35 µM (active) |
| COc1ccc(OC)c(CCNC(=O)c2ccc3nc(-c4cc(OCCCO)ccc4OC)cn3c2)c1 | Active | inactive | – |
| COc1cc(OC)c(CCNC(=O)c2cn3cc(-c4cc(OCCO)ccc4OC)nc3s2)c(OC)c1 | Active | inactive | – |
| O=C(C1CCCCC1)N1CC(=O)N2CCc3ccccc3[C@@H]2C1 | Active | inactive | – |
| COc1cccc(CNc2nnc(-c3c[nH]c4ncccc34)o2)c1 | Active | inactive | – |
| COCc1cc(-c2nc(-c3ccc(CNCC(=O)O)c(F)c3)no2)ccc1-c1ccccc1F | Active | inactive | – |
| CCOc1cc(CCNC(=O)C[C@H]2S[C@@H](c3ccc(C#Cc4ccccc4)cc3)N(c3cccc(C(N)=O)c3)C2=O)ccc1OC | Active | inactive | – |
| COc1cc(OC)c(CCNC(=O)c2cn3cc(-c4cc(OC)ccc4OC)nc3s2)c(OC)c1 | Active | inactive | – |
| Cc1cn(-c2ccc(Nc3ncn(Cc4ccc(Cl)cc4)n3)cc2C#N)cn1 | Active | inactive | – |
| COc1cc(Nc2cn(Cc3ccc(Oc4ccccc4)cc3)nn2)ccc1-n1cnc(C)c1 | Active | inactive | – |
| CN(C)C(=O)/C=C/C(=O)c1ccc(SCc2ccc(Cl)cc2Cl)cc1 | Active | inactive | – |
| COc1ccc(OCCCO)cc1-c1cn2cc(C(=O)NCCc3c(OC)cccc3OC)sc2n1 | Active | inactive | – |
| CNS(=O)(=O)c1ccccc1Nc1nc(Nc2ccc(N3CCOCC3)cc2OC)ncc1Br | Active | inactive | – |
| COc1cc(OC)c(CCNC(=O)c2cn3cc(-c4cc(OCC#N)ccc4OC)nc3s2)c(OC)c1 | Active | inactive | – |
| CCCSc1cc(C)c(C(=O)N=C(N)N)cc1S(C)(=O)=O | inactive | – | – |
| Cc1ccccc1-c1ccc(-c2nc(-c3ccc(CN(C)CCC(=O)O)cc3)no2)cc1C(F)(F)F | inactive | – | – |
| CCc1ccccc1N/C=C1\C(=O)N(c2ccc(S(=O)(=O)O)cc2)N=C1C | inactive | – | – |
| CCOc1cc(C2=NN(C(=O)c3ccc(NC(=O)c4cccnc4)cc3)CCC2)ccc1OC | inactive | – | – |
| Cc1ccccc1-c1ccc(-c2nc(-c3ccc(CN(C)CCC(=O)O)c(F)c3)no2)cc1C(F)(F)F | inactive | – | – |
| Cn1nc(O[C@@H]2c3cc(C#N)ccc3OC(C)(C)[C@H]2O)ccc1=O | inactive | – | – |
| CC1=C(C(=O)N2COc3ccc(C(F)(F)F)cc3C2)C2(CCN(C(C)C)CC2)OC1=O | inactive | – | – |

| Compound | In vitro activity (Schistosoma mansoni [1]) | Ex-vivo screening (Schistosoma mansoni [2]) | EC50 (Schistosoma mansoni [1]) |
| --- | --- | --- | --- |
| O=C(O)Cc1ccc(-c2nc(NCc3ccc4c(c3)OCO4)c3c(n2)sc2ccccc23)cc1 | inactive | – | – |
| CCOc1cc(C2=NN(C(=O)c3ccc(NC(=O)c4ccc(OC)cc4)cc3)CCC2)ccc1OC | inactive | – | – |
| CCCc1nn(C)c2c(=O)[nH]c(-c3cc(S(=O)(=O)Oc4ccccn4)ccc3OCC)nc12 | inactive | – | – |
| CNS(=O)(=O)c1ccccc1Nc1nc(Nc2cc(OC)c(OC)cc2C)ncc1Br | Active | inactive | – |
| COCc1cc(-c2nc(-c3cccc(CN(C)CC(=O)O)c3)no2)ccc1-c1ccccc1 | inactive | – | – |
| COc1ccc(OCC(N)=O)cc1-c1cn2cc(C(=O)NCCc3c(OC)cccc3OC)sc2n1 | inactive | – | – |
| C=CC(C)c1cc(C)c(C(=O)N=C(N)N)cc1S(C)(=O)=O (configuration not stated) | inactive | – | – |
| COc1cc(OC)c(CCNC(=O)c2cn3cc(-c4cc(OCC(N)=O)ccc4OC)nc3s2)c(OC)c1 | inactive | – | – |
| CN(C)c1cccc2c(S(=O)(=O)Nc3ccc4nsnc4c3)cccc12 | inactive | – | – |
| CCc1cc(C(=O)NCc2ccc(OC)c(Cl)c2)c(NC(=O)c2ccc(C(=O)O)cc2)s1 | inactive | – | – |
| COc1ccc(OCC(=O)O)cc1-c1cn2cc(C(=O)NCCc3c(OC)cccc3OC)sc2n1 | inactive | – | – |
| Clc1cccc(OCc2ncc3nccnc3n2)c1Cl | Active | inactive | – |
| CCCc1nn(C)c2c(=O)[nH]c(-c3cc(S(=O)(=O)Oc4cccnc4)ccc3OCC)nc12 | inactive | – | – |
| COc1cc([S+](C)[O-])ccc1-c1nc2cnccc2[nH]1 (configuration not stated) | inactive | – | – |
| COc1ccc(N2C[C@H](CN3CCC(O)(c4ccc5c(c4)OCO5)CC3)OC2=O)cc1 | inactive | – | – |
| Cc1cc(Cl)c(-n2cccc2)cc1C(=O)N=C(N)N | inactive | – | – |
| CC1=C(C(=O)N2CCc3ncc(C(F)(F)F)cc3C2)C2(CCN(C3CCC(O)CC3)CC2)OC1=O (configuration not stated) | inactive | – | – |
| CCCCc1nc2ccn(Cc3ccccc3C(=O)O)c(=O)c2n1Cc1ccc(-c2ccccc2-c2nn[nH]n2)cc1 | inactive | – | – |
| CC1=C(C(=O)N2CCN(c3cccc(C(F)(F)F)c3)CC2)C2(CCN(C(C)C)CC2)OC1=O | inactive | – | – |
| CCC(C)Oc1ccc(-c2nc(-c3ccc([C@@H](C)NCC(=O)O)cc3)no2)cc1COC (some centres not stated) | inactive | – | – |
| COCc1cc(-c2nc(-c3cc(F)cc(CN(C)CC(=O)O)c3)no2)ccc1-c1cccc(F)c1C | inactive | – | – |
| COCCCN1CCC2(CC1)OC(=O)C(C)=C2C(=O)N1CCc2ccc(C(F)(F)F)cc2C1 | inactive | – | – |

| Compound | In vitro activity (Schistosoma mansoni [1]) | Ex-vivo screening (Schistosoma mansoni [2]) | EC50 (Schistosoma mansoni [1]) |
| --- | --- | --- | --- |
| COc1ccc(CNc2nc([C@H]3CC[C@H](C(=O)O)CC3)nc3sc4ccccc4c23)cc1Cl | inactive | – | – |
| O=C(O)c1ccc(CCN2C(=O)CCN2CCC(O)Cc2cccc(Br)c2)cc1 (configuration not stated) | inactive | – | – |
| Cc1csc(N2CCN(C(C)c3ccc4c(c3)OCO4)CC2)n1 (configuration not stated) | inactive | – | – |
| O=C(O)C1CCN(c2nc(NCc3ccc4c(c3)OCO4)c3c4c(sc3n2)CCCC4)CC1 | inactive | – | – |
| COc1ccc(CNc2nc(CCCC(=O)O)nc3oc4c(c23)CCCC4)cc1Cl | inactive | – | – |
| CCCCc1nc2ccn(CC(=O)N3CCCCC3)c(=O)c2n1Cc1ccc(-c2ccccc2S(=O)(=O)NC(=O)OCc2ccccc2)cc1F | inactive | – | – |
| COc1ccc(OCCCO)cc1-c1cn2cc(-c3nnc(NCCCCc4ccccc4)o3)ccc2n1 | Active | inactive | – |
| CCCc1nn(C)c2c(=O)[nH]c(-c3cc(S(=O)(=O)Oc4ccncc4)ccc3OCC)nc12 | inactive | – | – |
| CCCc1nn(C)c2c(=O)[nH]c(-c3cc(S(=O)(=O)n4ccc(O)cc4=O)ccc3OCC)nc12 | inactive | – | – |
| CC1=C(C(=O)N2CCc3ccc(C(F)(F)F)cc3C2)C2(CCN(C3CCOC(C)C3)CC2)OC1=O (configuration not stated) | inactive | – | – |
| CCN1CCC2(CC1)OC(=O)C(C)=C2C(=O)N1CCc2ccc(C(F)(F)F)cc2C1 | inactive | – | – |
| CCC(C)c1cc(C)c(C(=O)N=C(N)N)cc1S(C)(=O)=O (configuration not stated) | inactive | – | – |
| COCc1cc(-c2nc(-c3ccc(CN(C)CCC(=O)O)cc3)no2)ccc1-c1ccccc1C | inactive | – | – |
| CCc1cc(Oc2cccnc2)c(S(C)(=O)=O)cc1C(=O)N=C(N)N | inactive | – | – |
| CCC(CC)N1CCC2(CC1)OC(=O)C(C)=C2C(=O)N1CCc2ncc(C(F)(F)F)cc2C1 | inactive | – | – |
| COc1ccc(CNc2nc(CCCCC(=O)O)nc3sc4ccccc4c23)cc1Cl | inactive | – | – |
| CC(/C=C/c1cc(/C=C/C(C)=C/C(=O)O)cc(-c2ccc(C(F)(F)F)cc2)c1)=C\C(=O)O | inactive | – | – |
| COc1cc(OC)c(CCNC(=O)c2ccc3nc(-c4cc(OC)ccc4OC)cn3c2)c(OC)c1 | inactive | – | – |
| COc1ccc(CNc2nc(CCCCC(=O)O)nc3sc4c(c23)CCCC4)cc1Cl | inactive | – | – |
| CCCCCCN(Cc1ccc(C#Cc2ccc(CCCC)cc2)cc1)C(=O)c1ccc(O)c(C(=O)O)c1 | inactive | – | – |
